The test system of one data set is Caenorhabditis elegans. Put plainly: In vivo toxicity C. elegans survival assay. The conditions noted are these: for survival rate: C. elegans, 50 µg/mL (highest tested concentration), 48 h. The procedure:
3. Bioactivity and Toxicity Assays […]
Compounds were dissolved in DMSO at a concentration of 50 mg/mL, and the highest tested concentration was 250 µg/mL. […]
In vivo toxicity C. elegans assay: The C. elegans survival assay was carried out as described previously with some modifications. 8 In brief, synchronized worms (L4 stage) were suspended in a medium containing 95% M9 buffer (3.0 g of KH2PO4, 6.0 g of Na2HPO4, 5.0 g of NaCl, and 1 mL of 1 M MgSO4 × 7H2O in 1 L of water), 5% LB (Luria-Bertani) broth (Oxoid, Basingstoke, UK), and 10 μg of cholesterol (Sigma -Aldrich, Munich, Germany) per mL. The experiment was carried out in 96 -well flat -bottomed microtiter plates (Sarstedt, Nümbrecht, Germany) in the final volume of 100 μL per wel l. 25 μL of this suspension of nematodes (25 –35 nematodes) were transferred to the wells of a 96 -well microtiter plate, where 50 μL of the medium was previously added. Next, 25 μL of a solvent control (DMSO) or 25 μL of a concentrated solution was added to the test wells. The final concentrations of the compounds were 50, 25, 10, and 5 µg/mL. Subsequently, the plates were incubated at 25 °C for 2 days. The fraction of dead worms was determined after 48 h by counting the number of dead worms and the total number of worms in each well, using a stereomicroscope (SMZ143-N2GG, Motic, Germany).
As a negative control experiment, nematodes were exposed to the medium containing 1% […]
(§1) Ergosterol biosynthesis assay: Ergosterol levels were measured according to the published procedure with some minor modifications. 10 Briefly, a sing le C. albicans colony from an overnight Sabouraud dextrose agar plate was used to inoculate 50 ml of Sabouraud dextrose broth containing 0.5 MIC concentrated compounds. Incubation was performed for 18 h at 37 °C on the rotary shaker at 180 rpm. Cells were harvested by centrifugation at 3000 rpm for 5 min and washed once with sterile distilled water. The net wet weight of the cell pellet was determined. Three milliliters of 25% alcoholic potassium hydroxide solution (25 g of KOH and 35 ml of sterile distill ed water, brought to 100 ml with 100% ethanol), was added to each pellet and vortex mixed for 1 min and incubated in an 85 °C water bath for 1 h. Tubes were cooled to room temperature and extraction of sterols was done with the addition of a mixture of 1 ml of sterile distilled water and 3 ml of n-heptane followed by vigorous vortex mixing for 3 min. The heptane layer was used for spectrophotometrically measuring ergosterol concentrations by scanning absorbance between 240 nm and 300 nm using Ultrospec 3300pro 573 (Amer sham Biosciences, Amersham, UK).

Data set [1] deals with ergosterol in C. albicans. Nature of the data set: Ergosterol biosynthesis assay. The conditions noted are these: 0.5 MIC; Candida cells; UV profile. The class given is cell-based, Candida albicans. On the procedure: as §1

The values below come from publication PMC12227560, “Total synthesis of a sorrentanone ester library and evaluation of its antimicrobial potential” (Scientific Reports, 2025).

Take `CC1=C(O)C(=O)C(C)=C(C(=O)OCCCC(C)C)C1=O` [compound 36]: the “in vivo toxicity (in words)” value with Caenorhabditis elegans (C. elegans model) was “comparatively lower in vivo toxicity”. Further, the survival rate entry in the data set with Caenorhabditis elegans was “over 90%”. For the same compound, the “reduction of total amount of ergosterol (in words)” value in data set [1] is “most potent in reducing the total amount of ergosterol”.
As for `CC1=C(O)C(=O)C(C)=C(C(=O)OCc2ccccc2)C1=O` [compound 41], in the data set with Caenorhabditis elegans, the survival rate result is “over 90%”. In addition, in data set [1], the “reduction of total amount of ergosterol (in words)” value is given as “most potent in reducing the total amount of ergosterol”.
